Assay: gradient 5% acetonitrile 3 min, to 50% in 2 min, to 85% in 15 min, held 3 min, 100 µL/min
Conditions: column: Zorbax Extend-C18 2.1 x 50 mm; eluents: water / acetonitrile, 0.1% formic acid
How it was run: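 The mobile phases were water and acetonitrile, each with 0.1% formic acid, pumped at 100 μL/min through a Zorbax Extend-C18 column (2.1 × 50 mm, 1.8 μm). Pure standards were injected as mixtures of ~100 molecules and detected by a quadrupole time-of-flight mass spectrometer in positive and negative ionization mode. Retention time came from computationally picked adduct peaks, each inspected by hand.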

SMILES | RP-LC retention time [s]
CCOC(=O)c1[nH]c(C)c(C(=O)N2CCC(CC(=O)N(C)Cc3ccco3)CC2)c1C | 729
CCC(C)(C)c1ccc(Oc2cccc(C(=O)O)c2)cc1 | 1260
COc1ccc(CNC(=O)[C@@]23CCCC[C@H]2N(C)C(=O)CC3)c(OC)c1 | 663
CCc1nn2c(CNS(=O)(=O)c3ccccc3Cl)c(-c3ccccc3)nc2s1 | 1000
CN(CCc1noc(C2CN(Cc3ccc(Cl)c(F)c3)C2)n1)S(C)(=O)=O | 633
NS(=O)(=O)c1ccc(CCNC(=O)C2CN(c3nc4c(F)cccc4s3)C2)cc1 | 660
CCCNC(=O)c1nnc(-c2ccc(S(=O)(=O)N3CCCC3)cc2)o1 | 824
CCCCN(C)S(=O)(=O)c1cc(-c2nc(C)cs2)n(CC(=O)N2CCCCC2)c1 | 1080
NS(=O)(=O)c1ccc(CCNCc2ccc(-c3ccc(Cl)cc3Cl)o2)cc1 | 800
Cc1cccc(N2CCN(C(=O)Cn3c(=O)c4nncn4c4ncccc43)CC2)c1C | 791
COC(=O)c1c(-c2cccc(Cl)c2)noc1NCc1ccco1 | 1060
O=C(Nc1ccc2nc(-c3ccccc3)cc(N3CCOCC3)c2c1)NC1CCCCC1 | 732
CC(C)c1noc(COC2CCN(C(=O)NCc3ccco3)CC2)n1 | 739
COc1cccc(-c2ccc(=O)n(Cc3nc(-c4cccc(Cl)c4)no3)n2)c1 | 1080
O=C1C2N=NN(Cc3nc(-c4ccccc4Br)no3)C2C(=O)N1c1ccc(F)cc1 (stereo unspecified) | 960
O=c1c(NCc2ccccc2Cl)nccn1-c1ccc2c(c1)OCO2 | 932
Cc1ccc(-n2nnc(C(=O)O)c2-c2ccncc2)cc1 | 636
COCCCN(CC(=O)N1CCNCC1)C(=O)c1ccc(F)c(Cl)c1 | 596
C=C(C)Cn1c(C(C)(C)C)cn2c3c(=O)n(C)c(=O)n(C)c3nc12 | 739
O=C1CC(C(=O)N2CCOCC2)CN1CCc1c[nH]c2ccc(Cl)cc12 (stereo unspecified) | 677
CC(=O)c1ccc(NS(=O)(=O)c2ccccc2[N+](=O)[O-])cc1 | 729
Cc1ccc(-c2nc3n(CC(=O)N4CCCCC4C)c4c(c(=O)n3n2)CCC4)cc1 (stereo unspecified) | 1040

SMILES | RP-LC retention time [s]
COc1ccc(Cl)cc1S(=O)(=O)N1CCC(C(=O)NCCc2ccccc2)CC1 | 909
CCN(CCNS(=O)(=O)c1ccc2[nH]c(=O)ccc2c1)Cc1ccccc1 | 597
Cc1cccc(Sc2nccnc2N2CCCC(C(=O)NC(C)c3ccccc3)C2)c1 (stereo unspecified) | 1150
COCc1nc(CCNS(=O)(=O)Cc2ccccc2)no1 | 722
Cc1cc(C(=O)NCCc2c[nH]c3ccccc23)c2c(=O)n(C)c(=O)n(C)c2n1 | 742
COc1ccc(CCNC(=O)[C@@H]2[C@H](c3cc(OC)c(OC)c(OC)c3)c3cc4c(cc3[C@H](O)[C@H]2CO)OCO4)cc1OC | 699
Cc1nc(-n2cccc2)sc1C(=O)N1CCN(C(=O)c2ccco2)CC1 | 713
Cc1cccc(-n2c(=O)c3sccc3n(Cc3nc(-c4ccccc4Cl)no3)c2=O)c1 | 1010
CCCN(Cc1ccc(OCC)cc1)Cc1cc(=O)n2cc(Cl)ccc2n1 | 686
CCN1CCN(C(=O)C2CCN(S(=O)(=O)c3ccc4c(c3)NC(=O)CO4)CC2)CC1 | 664
COc1ccc(OC)c(CNC(=O)C2CCCN(c3nccnc3Oc3ccccc3)C2)c1 (stereo unspecified) | 957
CCc1c(C(=O)O)nnn1Cc1cccc(OC)c1 | 687
O=[N+]([O-])c1cccc(-c2nc(N3CCCCCC3)c3ccccc3n2)c1 | 1030
Cn1nnnc1SCCNCc1ccc(Cl)cc1Cl | 596
O=C(O)c1cc2nc(-c3ccc(Cl)cc3)cc(C(F)(F)F)n2n1 | 927
CC1(C)CC(=O)c2cn(-c3ccc(Cl)cc3)c(=O)c(C(=O)N3CCOCC3)c2C1 | 757
CCOc1ccc(-c2noc(Cc3nc(-c4ccccc4Cl)cs3)n2)cc1 | 1340
O=C(c1cn2ccnc(-c3ccc(F)cc3)c2n1)N1CCN(c2ncccn2)CC1 | 756
Cc1ncc2c(n1)C[C@@H]1CC[C@H]2N1C(=O)Cc1ccccc1 | 648
CNC(=O)CCc1nc2ccccc2n(CC(=O)NCc2ccc(F)cc2)c1=O | 666
Cc1nn(-c2ccc(C(=O)N3CCN(c4ccccn4)CC3)cc2)c2c1C(=O)CCC2 | 574
CC1CCN(C(=O)C2=NN(Cc3ccccc3F)c3ccccc3S2(=O)=O)CC1 | 1030

SMILES | RP-LC retention time [s]
CSc1ccc(NC(=O)c2cn3c(n2)CSCC3)cc1 | 727
COc1ccc(NC(=O)N(Cc2nnc3n2CCCCC3)c2cccc(OC)c2)cc1 | 700
CCc1nnc(-c2ccc3ccn(CC(=O)N4CCC5(CC4)OCCO5)c3c2)o1 | 722
CC(C)OCCCNC(=O)c1ccc2c(c1)nc1n2CCCCC1 | 606
CC(C)n1cnc2cc(CNC(=O)c3ccccn3)ccc21 | 590
CCOc1ccc(-c2csc(C)n2)cc1S(=O)(=O)Nc1ccc(F)cc1 | 985
CCC(C)NC(=O)C1CCN(Cc2cc3ccccc3n2Cc2ccccc2Cl)CC1 (stereo unspecified) | 784
Cc1ccc(-c2nc(Nc3cccc(Cl)c3)sc2C)cc1 | 1320
Cc1cc(N(CCO)CCO)n2nc(-c3ccc(C(C)(C)C)cc3)nc2n1 | 687
COc1ccccc1N1CCN(c2ncc(S(=O)(=O)c3ccc(C(C)C)cc3)c(N)n2)CC1 | 1120
O=C(CN1CCN(c2ccc(Cl)cc2)C1=O)N1CCN(C(=O)c2ccco2)CC1 | 695
Cc1cc2[nH]c(C(=O)Nc3cc(F)cc(F)c3)c(CN(C)C)c2s1 | 715
COc1ccc(Cl)cc1NC(=O)N1CCCC(C)(C(=O)NCc2ccccc2)C1 (stereo unspecified) | 998
CCOc1cccc(-c2noc(Cc3nnc(-c4cccc(OC)c4)o3)n2)c1 | 1080
CCOc1ccc(NC(=O)c2oc3ccc(C)cc3c2C)c2cccnc12 | 766
Cc1ccc(F)cc1S(=O)(=O)N(C)CC1CCOC1 (stereo unspecified) | 836
O=C(NCC1CCCCC1)C1CCCN(c2nccn3nc(-c4ccccc4Cl)cc23)C1 (stereo unspecified) | 1040
CCOc1ccc(-c2csc(C)n2)cc1S(=O)(=O)NCc1ccccc1 | 996
Cc1ccc(CNc2cc(-n3ccnc3)ncn2)cc1C | 682
COc1ccc(Cl)c2c(=O)c3c([nH]c12)CCN(CC(=O)Nc1cc(C)ccc1C)C3 | 649
CC(C)N1CCCn2cc(S(=O)(=O)Nc3ccc(F)cc3)cc2C1=O | 754
CCOc1ccc(S(=O)(=O)N2CCC(C(=O)NCCCO)CC2)cc1C | 707
